# Results: patent publication US20240425480A1, “NOVEL PYRIDINE DERIVATIVE COMPOUND AS RON INHIBITOR” (LG CHEM, LTD., priority 2021, published 2024)
# Experiments:
# [1] = molecular target: cMET (Homo sapiens, UniProt P08581); test: Inhibitory activity against MET (cMET), TR-FRET kinase assay; assay type: biochemical; settings: TR-FRET enzyme assay
# Procedure: In addition, in order to measure the enzyme activity inhibition for cMET, the evaluation was performed in the same manner as the enzyme activity inhibition measurement experiment for RON.
# (§1) Specifically, the compound was prepared to a concentration of 1 mM in 100% DMSO and was diluted 10 times in a stepwise manner through 3-fold dilution. The compound (2 ul) diluted in a stepwise manner was added to a 96-well-plate containing 48 ul of a 1×kinase reaction buffer (50 mM HEPES (pH 7.4), 0.05% BSA, 0.005% Tween-20, 1 mM DTT, 0.5 mM MnCl2, 20 mM MgCl2).
# The cMET protein was diluted to a concentration of 263 nM in a cMET storage buffer (50 mM Tris-HCl (pH 7.5), 150 mM NaCl, 0.05% Brij35, 1 mM DTT, 10% Glycerol), and then diluted again to a concentration of 2 nM in a 1×kinase reaction buffer. As a substrate cocktail, a MET-specific substrate mixed solution (5 uM TK peptide, 10 mM ATP) was prepared at a concentration 2 times the final reaction concentration.
# (§2) Thereafter, a 384-well-plate was prepared, and 2.5 μl of each of the diluted compounds of Examples was added to a corresponding well of experimental group wells, and 2.5 μl of a 4% DMSO solution was dispensed into high control wells and low control wells.
# (§3) Thereafter, 2.5 μL of 2 nM cMET was dispensed into each of the high control wells and the experimental group wells, and 2.5 μL of the 1× kinase reaction buffer was added to the low control wells, and all the wells were centrifuged at room temperature for 40 seconds at 1,000 RPM, and then incubated at room temperature for 20-30 minutes. Then, 5 μL of the substrate cocktail (2×) was dispensed into each well, and all the wells were centrifuged at room temperature for 40 seconds at 1,000 RPM, and then incubated at room temperature for 60 minutes. Thereafter, 5 μL of 90 mM EDTA was added to each well to terminate the reaction, and all the wells were then incubated again at room temperature for 5 minutes. Thereafter, 5 μL of a 4×phosphotyrosine antibody (Perkin Elmer) containing europium was added to each well, and all the wells were then incubated at room temperature for 60 minutes. After the incubation, the 384-well-plate was read with the Vison plate reader. In this case, the excitation wavelength was 340 nm, and the emission wavelength was 620 nm and 665 nm. The pe50 value of each compound of Examples was derived using the GraphPd Prism7 program.
# [2] = molecular target: RON (Homo sapiens, UniProt Q04912); test: Inhibitory activity against RON, TR-FRET kinase assay; assay type: biochemical; settings: TR-FRET enzyme assay
# Procedure: In order to measure the inhibitory activity of each of the compounds of Examples against RON, the IC50 of each of the compounds was measured using Time-resolved fluorescence energy transfer (TR-FRET).
# as §1, with “a 1× kinase” for “a 1×kinase”, “7.4), 0.01%” for “7.4), 0.05% BSA, 0.005%”, “Tween-20, 5” for “Tween-20, 1”, “mM Na3VO4, 2 mM EGTA, 10” for “mM MnCl2, 20”
# The RON protein was diluted to a concentration of 49.3 nM in a RON storage buffer (50 mM Tris-HCl (pH 7.5), 150 mM NaCl, 0.5 mM EDTA, 0.02% Triton X-100), and then diluted again to a concentration of 0.4 nM in a 1×kinase reaction buffer. As a substrate cocktail, a RON-specific substrate mixed solution (40 uM ULight-labeled Poly GT, 100 nM ATP) was prepared at a concentration 2 times the final reaction concentration.
# as §2
# as §3, with “of 0.4” for “of 2”, “nM RON” for “nM cMET”, “of 30” for “of 90”, “The IC50” for “The pe50”
# Sequence of RON (Q04912 25-1400, species assumed): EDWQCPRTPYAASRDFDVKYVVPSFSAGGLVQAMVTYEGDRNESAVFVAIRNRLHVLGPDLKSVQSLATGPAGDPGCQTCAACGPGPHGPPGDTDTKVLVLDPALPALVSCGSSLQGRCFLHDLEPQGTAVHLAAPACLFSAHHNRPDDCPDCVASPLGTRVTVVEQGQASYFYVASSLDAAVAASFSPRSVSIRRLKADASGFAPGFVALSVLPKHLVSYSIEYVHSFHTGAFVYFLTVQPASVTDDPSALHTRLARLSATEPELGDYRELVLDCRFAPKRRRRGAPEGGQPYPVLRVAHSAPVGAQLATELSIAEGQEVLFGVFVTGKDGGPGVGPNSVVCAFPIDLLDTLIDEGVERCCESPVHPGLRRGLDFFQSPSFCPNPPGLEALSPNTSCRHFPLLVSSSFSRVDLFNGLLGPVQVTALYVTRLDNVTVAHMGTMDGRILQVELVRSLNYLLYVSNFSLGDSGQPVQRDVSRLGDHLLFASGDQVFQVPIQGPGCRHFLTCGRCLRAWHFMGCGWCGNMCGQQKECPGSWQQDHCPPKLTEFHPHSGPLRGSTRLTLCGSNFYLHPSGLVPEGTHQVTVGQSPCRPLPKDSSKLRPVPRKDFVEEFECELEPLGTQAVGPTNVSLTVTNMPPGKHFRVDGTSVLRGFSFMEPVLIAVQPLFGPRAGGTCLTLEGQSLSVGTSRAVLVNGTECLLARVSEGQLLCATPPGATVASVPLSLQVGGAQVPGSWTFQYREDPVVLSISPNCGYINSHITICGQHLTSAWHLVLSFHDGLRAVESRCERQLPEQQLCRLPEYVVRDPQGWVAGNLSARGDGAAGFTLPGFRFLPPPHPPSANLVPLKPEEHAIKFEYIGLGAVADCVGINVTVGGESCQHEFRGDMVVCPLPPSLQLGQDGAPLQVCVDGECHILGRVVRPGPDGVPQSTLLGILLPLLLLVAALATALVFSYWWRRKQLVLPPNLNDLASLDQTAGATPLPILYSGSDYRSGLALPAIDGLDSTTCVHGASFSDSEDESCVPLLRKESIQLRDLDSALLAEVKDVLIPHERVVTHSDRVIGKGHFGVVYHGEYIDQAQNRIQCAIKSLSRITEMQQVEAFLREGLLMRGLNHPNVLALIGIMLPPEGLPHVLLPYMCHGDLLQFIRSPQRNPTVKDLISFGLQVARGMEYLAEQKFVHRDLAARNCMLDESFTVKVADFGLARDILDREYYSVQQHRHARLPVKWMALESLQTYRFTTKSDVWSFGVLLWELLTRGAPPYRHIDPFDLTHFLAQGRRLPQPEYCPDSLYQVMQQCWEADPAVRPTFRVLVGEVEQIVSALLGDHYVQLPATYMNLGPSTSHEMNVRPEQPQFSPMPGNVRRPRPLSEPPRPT
# Sequence of cMET (P08581 25-1390): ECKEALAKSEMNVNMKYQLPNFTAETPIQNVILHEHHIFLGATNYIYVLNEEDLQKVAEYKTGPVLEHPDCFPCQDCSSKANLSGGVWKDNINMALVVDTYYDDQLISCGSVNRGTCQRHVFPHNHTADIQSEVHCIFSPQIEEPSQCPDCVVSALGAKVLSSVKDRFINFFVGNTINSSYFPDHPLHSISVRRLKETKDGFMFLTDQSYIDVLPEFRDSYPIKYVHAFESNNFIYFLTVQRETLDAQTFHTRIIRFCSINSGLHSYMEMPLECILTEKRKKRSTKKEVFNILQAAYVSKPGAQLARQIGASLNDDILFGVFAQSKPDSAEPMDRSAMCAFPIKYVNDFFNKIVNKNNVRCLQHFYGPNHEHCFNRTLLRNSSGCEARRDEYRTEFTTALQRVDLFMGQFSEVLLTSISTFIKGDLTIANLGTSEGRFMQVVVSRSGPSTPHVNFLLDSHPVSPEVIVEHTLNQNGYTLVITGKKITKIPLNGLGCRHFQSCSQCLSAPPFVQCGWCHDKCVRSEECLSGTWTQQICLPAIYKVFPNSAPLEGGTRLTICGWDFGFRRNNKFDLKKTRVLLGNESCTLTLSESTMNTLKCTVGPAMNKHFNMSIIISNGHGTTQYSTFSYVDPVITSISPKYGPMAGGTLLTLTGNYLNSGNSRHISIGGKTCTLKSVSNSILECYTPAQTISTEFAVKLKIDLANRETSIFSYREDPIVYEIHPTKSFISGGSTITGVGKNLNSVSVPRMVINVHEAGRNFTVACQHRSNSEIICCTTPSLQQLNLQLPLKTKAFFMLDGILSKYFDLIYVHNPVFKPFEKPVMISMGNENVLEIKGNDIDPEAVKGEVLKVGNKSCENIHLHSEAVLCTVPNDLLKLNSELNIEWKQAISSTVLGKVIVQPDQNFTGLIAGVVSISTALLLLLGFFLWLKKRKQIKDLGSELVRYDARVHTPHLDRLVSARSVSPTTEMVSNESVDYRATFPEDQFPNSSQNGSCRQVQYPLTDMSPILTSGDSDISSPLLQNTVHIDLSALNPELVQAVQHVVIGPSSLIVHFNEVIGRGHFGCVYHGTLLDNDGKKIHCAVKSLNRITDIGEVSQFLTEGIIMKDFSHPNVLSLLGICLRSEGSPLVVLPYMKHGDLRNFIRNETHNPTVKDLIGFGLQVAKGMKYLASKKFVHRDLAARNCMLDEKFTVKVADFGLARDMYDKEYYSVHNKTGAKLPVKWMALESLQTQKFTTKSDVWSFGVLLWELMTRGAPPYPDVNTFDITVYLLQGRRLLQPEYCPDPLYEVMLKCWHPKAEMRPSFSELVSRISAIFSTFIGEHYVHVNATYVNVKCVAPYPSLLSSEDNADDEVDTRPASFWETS
Compound,IC50 [1] [nM],IC50 [2] [nM]
"Cc1ccnc(-n2ncc(C(=O)Nc3ccc(Oc4ncnc(N)c4Cl)c(F)c3)c2C(F)(F)F)n1 [Example 62, N-[4-(6-amino-5-chloro-pyrimidin-4-yl)oxy-3-fluoro-phenyl]-1-(4-methylpyrimidin-2-yl)-5-(trifluoromethyl)pyrazole-4-carboxamide]",> 5000,50 to 500
"Nc1ncnc(Oc2ccc(NC(=O)c3cnn(-c4cccnc4)c3C(F)(F)F)cc2F)c1Cl [Example 56, N-[4-(6-amino-5-chloro-pyrimidin-4-yl)oxy-3-fluoro-phenyl]-1-(3-pyridyl)-5-(trifluoromethyl)pyrazole-4-carboxamide]",> 5000,50 to 500
"Nc1nccc(Oc2ccc(NC(=O)c3cnn(-c4nc(-c5ccccc5)cs4)c3C(F)(F)F)cc2F)c1Cl [Example 3, N-(4-((2-amino-3-chloropyridin-4-yl)oxy)-3-fluorophenyl)-1-(4-phenylthiazol-2-yl)-5-(trifluoromethyl)-1H-pyrazole-4-carboxamide]",> 5000,> 5000
"Nc1nccc(Oc2ccc(NC(=O)c3cnn(-c4cc(F)ccn4)c3C(F)(F)F)cc2F)c1Cl [Example 25, N-(4-((2-amino-3-chloropyridin-4-yl)oxy)-3-fluorophenyl)-1-(4-fluoropyridin-2-yl)-5-(trifluoromethyl)-1H-pyrazole-4-carboxamide]",> 5000,< 50
"Nc1nccc(Oc2ccc(NC(=O)c3cnn(-c4ncccc4F)c3C(F)(F)F)cc2F)c1Cl [Example 8, N-(4-((2-amino-3-chloropyridin-4-yl)oxy)-3-fluorophenyl)-1-(3-fluoropyridin-2-yl)-5-(trifluoromethyl)-1H-pyrazole-4-carboxamide]",500 to 5000,< 50
"Nc1ncnc(Oc2ccc(NC(=O)c3cnn(-c4ccncc4)c3C(F)(F)F)cc2F)c1Cl [Example 57, N-[4-(6-amino-5-chloro-pyrimidin-4-yl)oxy-3-fluoro-phenyl]-1-(4-pyridyl)-5-(trifluoromethyl)pyrazole-4-carboxamide]",> 5000,500 to 5000
"Cc1ccnc(-n2ncc(C(=O)Nc3ccc(Oc4ncnc(N)c4Cl)c(F)c3)c2C(F)(F)F)c1 [Example 47, N-[4-(6-amino-5-chloro-pyrimidin-4-yl)oxy-3-fluoro-phenyl]-1-(4-methyl-2-pyridyl)-5-(trifluoromethyl)pyrazole-4-carboxamide]",> 5000,50 to 500

# Second part, the compound after the results:
IC50 [1] [nM],IC50 [2] [nM],Compound
500 to 5000,50 to 500,"Nc1nccc(Oc2ccc(NC(=O)c3cnn(-c4cccnc4)c3C(F)(F)F)cc2F)c1Cl [Example 18, N-(4-((2-amino-3-chloropyridin-4-yl)oxy)-3-fluorophenyl)-1-(pyridin-3-yl)-5-(trifluoromethyl)-1H-pyrazole-4-carboxamide]"
500 to 5000,50 to 500,"CCc1c(C(=O)Nc2ccc(Oc3ccnc(N)c3Cl)c(F)c2)cnn1-c1cncnc1 [Example 1, N-(4-((2-amino-3-chloropyridin-4-yl)oxy)-3-fluorophenyl)-5-ethyl-1-(pyrimidin-5-yl)-1H-pyrazole-4-carboxamide]"
500 to 5000,50 to 500,"Cc1ccnc(-n2ncc(C(=O)Nc3ccc(Oc4ccnc(N)c4Cl)c(F)c3)c2C(F)(F)F)c1 [Example 12, N-(4-((2-amino-3-chloropyridin-4-yl)oxy)-3-fluorophenyl)-1-(4-methylpyridin-2-yl)-5-(trifluoromethyl)-1H-pyrazole-4-carboxamide]"
500 to 5000,< 50,"Cc1cccnc1-n1ncc(C(=O)Nc2ccc(Oc3ccnc(N)c3Cl)c(F)c2)c1C(F)(F)F [Example 9, N-(4-((2-amino-3-chloropyridin-4-yl)oxy)-3-fluorophenyl)-1-(3-methylpyridin-2-yl)-5-(trifluoromethyl)-1H-pyrazole-4-carboxamide]"
